This is an account of results in patent publication US9777004B2, “Amino-substituted imidazopyridazines” (Bayer Intellectual Property GmbH, priority 2012, dated 2017).

The target in experiment [1] is T1, human full-length MKNK1 (Homo sapiens (Human), UniProt Q9BUB5, T344D). The experiment is described as follows: MKNK1 kinase high ATP assay (TR-FRET). Format: biochemical. Particulars: 2 mM ATP, 15 min preincubation. The protocol: MKNK1 Kinase High ATP Assay
MKNK1-inhibitory activity at high ATP of compounds of the present invention after their preincubation with MKNK1 was quantified employing the TR-FRET-based MKNK1 high ATP assay as described in the following paragraphs.
As substrate for the kinase reaction the biotinylated peptide biotin-Ahx-[…] (C-terminus in amide form) was used, which can be purchased e.g. from the company Biosyntan (Berlin-Buch, Germany).
(§1) For the assay 50 nL of a 100fold concentrated solution of the test compound in DMSO was pipetted into a black low volume 384well microtiter plate (Greiner Bio-One, Frickenhausen, Germany), 2 μL of a solution of MKNK1 in aqueous assay buffer [50 mM HEPES pH 7.5, 5 mM magnesium chloride, 1.0 mM dithiothreitol, 0.005% (v/v) Nonidet-P40 (Sigma)] was added and the mixture was incubated for 15 min at 22° C. to allow pre-binding of the test compounds to the enzyme before the start of the kinase reaction. Then the kinase reaction was started by the addition of 3 μL of a solution of adenosine-tri-phosphate (ATP, 3.3 mM=>final conc. in the 5 μL assay volume is 2 mM) and substrate (0.1 μM=>final conc. in the 5 μL assay volume is 0.06 μM) in assay buffer and the resulting mixture was incubated for a reaction time of 30 min at 22° C. The concentration of MKNK1 was adjusted depending of the activity of the enzyme lot and was chosen appropriate to have the assay in the linear range, typical concentrations were in the range of 0.003 μg/mL. The reaction was stopped by the addition of 5 μL of a solution of TR-FRET detection reagents (5 nM streptavidine-XL665 [Cisbio Bioassays, Codolet, France] and 1 nM anti-ribosomal protein S6 (pSer236)-antibody from Invitrogen [#44921G] and 1 nM LANCE EU-W1024 labeled ProteinG [Perkin-Elmer, product no. AD0071]) in an aqueous EDTA-solution (100 mM EDTA, 0.1% (w/v) bovine serum albumin in 50 mM HEPES pH 7.5).
(§2) The resulting mixture was incubated for 1 h at 22° C. to allow the formation of complex between the phosphorylated biotinylated peptide and the detection reagents. Subsequently the amount of phosphorylated substrate was evaluated by measurement of the resonance energy transfer from the Eu-chelate to the streptavidine-XL. Therefore, the fluorescence emissions at 620 nm and 665 nm after excitation at 350 nm were measured in a TR-FRET reader, e.g. a Rubystar (BMG Labtechnologies, Offenburg, Germany) or a Viewlux (Perkin-Elmer). The ratio of the emissions at 665 nm and at 622 nm was taken as the measure for the amount of phosphorylated substrate.

For experiment [2], the target named is T1, human full-length MKNK1. The experiment can be described thus: MKNK1 kinase assay (TR-FRET). Format: biochemical. The conditions noted are these: 10 μM ATP, 15 min preincubation. The protocol:
MKNK1-inhibitory activity of compounds of the present invention was quantified employing the MKNK1 TR-FRET assay as described in the following paragraphs.
As substrate for the kinase reaction the biotinylated peptide biotin-Ahx-[…] (C-terminus in amide form) was used which can be purchased e.g. form the company Biosyntan (Berlin-Buch, Germany).
as §1, with “16.7 μM=>final” for “3.3 mM=>final”, “10 μM)” for “2 mM)”, “45” for “30”, “0.05” for “0.003”
as §2

Structures are written as SMILES.

T1 sequence (Q9BUB5 other isoform, or with tags, fused parts or gaps T344D): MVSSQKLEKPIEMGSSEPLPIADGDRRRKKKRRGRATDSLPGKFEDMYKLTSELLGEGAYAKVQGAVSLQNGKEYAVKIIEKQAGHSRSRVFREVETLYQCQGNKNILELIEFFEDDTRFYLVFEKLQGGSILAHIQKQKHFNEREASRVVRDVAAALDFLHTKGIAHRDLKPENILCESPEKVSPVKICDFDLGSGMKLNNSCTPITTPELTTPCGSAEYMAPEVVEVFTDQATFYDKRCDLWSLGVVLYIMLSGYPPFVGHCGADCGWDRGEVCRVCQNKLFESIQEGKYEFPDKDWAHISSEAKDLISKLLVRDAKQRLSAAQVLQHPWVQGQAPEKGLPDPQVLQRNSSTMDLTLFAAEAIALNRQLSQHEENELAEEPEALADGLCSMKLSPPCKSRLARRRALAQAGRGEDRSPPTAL

Consider `CC(C)(C)CNCCCOc1ccc2ncc(-c3cc4ccccc4o3)n2n1` [Example 4, N-(3-{[3-(1-Benzofuran-2-yl)imidazo[1,2-b]pyridazin-6-yl]oxy}propyl)-2,2-dimethylpropan-1-amine], for which the values for the IC50 in experiment [1] and in experiment [2] were 13 nM and 4 nM, respectively.
Take `COc1cccc2oc(-c3cnc4ccc(OC[C@H]5CNCCO5)nn34)cc12` [Example 2, 3-(4-Methoxy-1-benzofuran-2-yl)-6-[(2R)-morpholin-2-ylmethoxy]imidazo[1,2-b]pyridazine]: the IC50 – broadly, the concentration that inhibits the measured activity by half – in experiment [1] was determined as 11 nM.
With `c1ccc2oc(-c3cnc4ccc(O[C@@H]5CCNC5)nn34)cc2c1` [Example 31, 3-(1-Benzofuran-2-yl)-6-[(3R)-pyrrolidin-3-yloxy]imidazo[1,2-b]pyridazine], the IC50 in experiment [1] worked out at 49 nM; in experiment [2] it was 22 nM.
For the compound `CC(C)NCCCOc1ccc2ncc(-c3cc4ccccc4o3)n2n1` [Example 9, 3-{[3-(1-Benzofuran-2-yl)imidazo[1,2-b]pyridazin-6-yl]oxy}-N-(propan-2-yl)propan-1-amine], the IC50 in experiment [1] turned out to be 20 nM; in experiment [2], 7 nM.
For the compound `c1ccc2oc(-c3cnc4ccc(OCCNC5CC5)nn34)cc2c1` [Example 17, N-(2-{[3-(1-Benzofuran-2-yl)imidazo[1,2-b]pyridazin-6-yl]oxy}ethyl)cyclopropanamine], the 50% inhibitory concentration (IC50) amounted to 36 nM in experiment [1] and 8 nM in experiment [2].
On to `CNCC(C)Oc1ccc2ncc(-c3cc4ccccc4o3)n2n1` (stereo not shown) [Example 26, 2-{[3-(1-Benzofuran-2-yl)imidazo[1,2-b]pyridazin-6-yl]oxy}-N-methylpropan-1-amine], for which the IC50 in experiment [1] turned out to be 93 nM.
Turning to `CC(C)(C)NCCOc1ccc2ncc(-c3cc4ccccc4o3)n2n1` [Example 18, N-(2-{[3-(1-Benzofuran-2-yl)imidazo[1,2-b]pyridazin-6-yl]oxy}ethyl)-2-methylpropan-2-amine], the IC50 in experiment [1] worked out at 37 nM; in experiment [2], 24 nM.
As for `CNCC(Oc1ccc2ncc(-c3cc4ccccc4o3)n2n1)c1ccccc1` (single isomer, unassigned; (-)) [Example 29, (-)-2-{[3-(1-Benzofuran-2-yl)imidazo[1,2-b]pyridazin-6-yl]oxy}-N-methyl-2-phenylethanamine], the values for the IC50 in experiment [1] and in experiment [2] were 124 nM and 98 nM, respectively.
In the same order, the values of `Clc1ccc2oc(-c3cnc4ccc(OCC[C@@H]5CCCN5)nn34)cc2c1` [Example 25, 3-(5-Chloro-1-benzofuran-2-yl)-6-{2-[(2S)-pyrrolidin-2-yl]ethoxy}imidazo[1,2-b]pyridazine] are 91 nM and 39 nM.
In the same order, the values of `c1ccc2oc(-c3cnc4ccc(OCC[C@@H]5CCCN5)nn34)cc2c1` [Example 15, 3-(1-Benzofuran-2-yl)-6-{2-[(2S)-pyrrolidin-2-yl]ethoxy}imidazo[1,2-b]pyridazine] are 30 nM and 12 nM.
In the same order, the values of `CC(C)(C)CNCCOc1ccc2ncc(-c3cc4ccccc4o3)n2n1` [Example 12, N-(2-{[3-(1-Benzofuran-2-yl)imidazo[1,2-b]pyridazin-6-yl]oxy}ethyl)-2,2-dimethylpropan-1-amine] are 25 nM and 11 nM.
`CC(C)NCC(Oc1ccc2ncc(-c3cc4ccccc4o3)n2n1)c1ccccc1` (stereo not shown) [Example 27, Formic acid-N-(2-{[3-(1-benzofuran-2-yl)imidazo[1,2-b]pyridazin-6-yl]oxy}-2-phenylethyl)propan-2-amine (1:1)]: the IC50 stood at 75 nM in experiment [1] and 36 nM in experiment [2].
For `Clc1ccc2oc(-c3cnc4ccc(OC[C@H]5CNCCO5)nn34)cc2c1` [Example 20, 3-(5-Chloro-1-benzofuran-2-yl)-6-[(2R)-morpholin-2-ylmethoxy]imidazo[1,2-b]pyridazine], half-maximal inhibition in experiment [1] (IC50) required 41 nM.
In turn, `c1ccc2oc(-c3cnc4ccc(OCC5CNC5)nn34)cc2c1` [Example 14, 6-(Azetidin-3-ylmethoxy)-3-(1-benzofuran-2-yl)imidazo[1,2-b]pyridazine] returned an IC50 in experiment [1] of 27 nM.
For `c1ccc2oc(-c3cnc4ccc(OCCNCC5CC5)nn34)cc2c1` [Example 6, 2-{[3-(1-Benzofuran-2-yl)imidazo[1,2-b]pyridazin-6-yl]oxy}-N-(cyclopropylmethyl)ethanamine], the IC50 in experiment [1] worked out at 18 nM; in experiment [2], 7 nM.
For the compound `Fc1cccc2oc(-c3cnc4ccc(OC[C@H]5CNCCO5)nn34)cc12` [Example 33, 3-(4-Fluoro-1-benzofuran-2-yl)-6-[(2R)-morpholin-2-ylmethoxy]imidazo[1,2-b]-pyridazine], the IC50 in experiment [1] amounted to 15 nM; in experiment [2] it was 10 nM.
Regarding `CNC(C)COc1ccc2ncc(-c3cc4ccccc4o3)n2n1` (stereo not shown) [Example 24, 1-{[3-(1-Benzofuran-2-yl)imidazo[1,2-b]pyridazin-6-yl]oxy}-N-methylpropan-2-amine], 55 nM corresponded to half-maximal inhibition in experiment [1] (IC50).
Turning to `CC(C)(C)CNCC(Oc1ccc2ncc(-c3cc4ccccc4o3)n2n1)c1ccccc1` (stereo not shown) [Example 30, N-(2-{[3-(1-Benzofuran-2-yl)imidazo[1,2-b]pyridazin-6-yl]oxy}-2-phenylethyl)-2,2-dimethylpropan-1-amine], the IC50 stood at 239 nM in experiment [1] and 227 nM in experiment [2].
